≈ marks a conversion by molar mass, not a printed value. *1 amine or outer side, *2 acyl side, *3 side chain or, on linkers, in order; H or OH if unused. Where a SMILES comes first, the peptide text is derived from it. [ ]: non-standard residue; d: D form. The star is where a group is joined. Orn(α-tetramethylguanidino) = CN(C)C(=N[C@@H](CCCN)C(=O)*)N(C)C; X1 = N=C(N)NCCC[C@H](NC(=S)[C@@H]1CCCN1[*:1])C(=O)[*:2]; X3 = O=C([C@@H]1CCCN1C(=S)[C@@H]1CCCN1[*:1])[*:2]; Hyp = O=C(O)[C@@H]1C[C@@H](O)CN1
Columns and labels:
Escherichia coli [1] = experiment: Potency index, ratio of Api-137 MIC to test compound MIC for antibacterial activity against Escherichia coli BL21 assessed as bacterial growth inhibition by broth microdilution assay; format: functional
Escherichia coli [2] = experiment: Antibacterial activity against Escherichia coli BL21 assessed as bacterial growth inhibition by broth microdilution assay; format: functional

SMILES	MIC (Escherichia coli [2]) [µM]	Ratio (Escherichia coli [1])
CC[C@H](C)[C@H](NC(=O)[C@H](Cc1ccc(O)cc1)NC(=O)[C@@H](NC(=O)[C@@H]1CCCN1C(=O)[C@H](CCCNC(=N)N)NC(=O)[C@H](CC(N)=O)NC(=O)[C@H](CC(N)=O)NC(=O)[C@H](CCCN)N=C(N(C)C)N(C)C)C(C)C)C(=O)N1CCC[C@H]1C(=O)N[C@@H](CCCNC(=N)N)C(=O)N1CCC[C@H]1C(=O)N[C@@H](CCCNC(=N)N)C(=O)N1C[C@H](O)C[C@H]1C(=O)N1CCC[C@H]1C(=O)N[C@@H](Cc1c[nH]cn1)C(=O)N1CCC[C@H]1C(=O)N[C@@H](CCCNC(=N)N)C(=O)N[C@@H](CC(C)C)C(=O)O ({Orn(α-tetramethylguanidino)}-NNRPVYIPRPR[Hyp]PHPRL-OH)	0.16 (≈ 0.369 µg/mL)	2
CC[C@H](C)[C@H](NC(=O)[C@H](Cc1ccc(O)cc1)NC(=O)[C@@H](NC(=O)[C@@H]1CCCN1C(=O)[C@H](CCCNC(=N)N)NC(=O)[C@H](CC(N)=O)NC(=O)[C@H](CC(N)=O)NC(=O)[C@H](CCCN)N=C(N(C)C)N(C)C)C(C)C)C(=O)N1CCC[C@H]1C(=O)N[C@@H](CCCNC(=N)N)C(=O)N1CCC[C@H]1C(=O)N[C@@H](CCCNC(=N)N)C(=O)N1CCC[C@H]1C(=S)N1CCC[C@H]1C(=O)N[C@@H](Cc1c[nH]cn1)C(=O)N1CCC[C@H]1C(=O)N[C@@H](CCCNC(=N)N)C(=O)N[C@@H](CC(C)C)C(=O)O ({Orn(α-tetramethylguanidino)}-NNRPVYIPRPR[X3]HPRL-OH)	0.62 (≈ 1.43 µg/mL)	4
CC[C@H](C)[C@H](NC(=O)[C@H](Cc1ccc(O)cc1)NC(=O)[C@@H](NC(=O)[C@@H]1CCCN1C(=O)[C@H](CCCNC(=N)N)NC(=O)[C@H](CC(N)=O)NC(=O)[C@H](CC(N)=O)NC(=O)[C@H](CCCN)N=C(N(C)C)N(C)C)C(C)C)C(=O)N1CCC[C@H]1C(=O)N[C@@H](CCCNC(=N)N)C(=O)N1CCC[C@H]1C(=S)N[C@@H](CCCNC(=N)N)C(=O)N1CCC[C@H]1C(=O)N1CCC[C@H]1C(=O)N[C@@H](Cc1c[nH]cn1)C(=O)N1CCC[C@H]1C(=O)N[C@@H](CCCNC(=N)N)C(=O)N[C@@H](CC(C)C)C(=O)O ({Orn(α-tetramethylguanidino)}-NNRPVYIPR[X1]PPHPRL-OH)	0.62 (≈ 1.43 µg/mL)	4

Now from value to compound, other results behind:

MIC (Escherichia coli [2]) [µM]	SMILES	Ratio (Escherichia coli [1])
1.2 (≈ 2.77 µg/mL)	CC[C@H](C)[C@H](NC(=O)[C@H](Cc1ccc(O)cc1)NC(=O)[C@@H](NC(=O)[C@@H]1CCCN1C(=O)[C@H](CCCNC(=N)N)NC(=O)[C@H](CC(N)=O)NC(=O)[C@H](CC(N)=O)NC(=O)[C@H](CCCN)N=C(N(C)C)N(C)C)C(C)C)C(=O)N1CCC[C@H]1C(=O)N[C@@H](CCCNC(=N)N)C(=O)N1C[C@H](O)C[C@H]1C(=O)N[C@@H](CCCNC(=N)N)C(=O)N1CCC[C@H]1C(=O)N1CCC[C@H]1C(=O)N[C@@H](Cc1c[nH]cn1)C(=O)N1CCC[C@H]1C(=O)N[C@@H](CCCNC(=N)N)C(=O)N[C@@H](CC(C)C)C(=O)O ({Orn(α-tetramethylguanidino)}-NNRPVYIPR[Hyp]RPPHPRL-OH)	4
0.08 (≈ 0.185 µg/mL)	CC[C@H](C)[C@H](NC(=O)[C@H](Cc1ccc(O)cc1)NC(=O)[C@@H](NC(=O)[C@@H]1CCCN1C(=O)[C@H](CCCNC(=N)N)NC(=O)[C@H](CC(N)=O)NC(=O)[C@H](CC(N)=O)NC(=O)[C@H](CCCN)N=C(N(C)C)N(C)C)C(C)C)C(=O)N1C[C@H](O)C[C@H]1C(=O)N[C@@H](CCCNC(=N)N)C(=O)N1CCC[C@H]1C(=O)N[C@@H](CCCNC(=N)N)C(=O)N1CCC[C@H]1C(=O)N1CCC[C@H]1C(=O)N[C@@H](Cc1c[nH]cn1)C(=O)N1CCC[C@H]1C(=O)N[C@@H](CCCNC(=N)N)C(=O)N[C@@H](CC(C)C)C(=O)O ({Orn(α-tetramethylguanidino)}-NNRPVYI[Hyp]RPRPPHPRL-OH)	1
